Columns and labels:
[1] = Cytotoxicity against human HuH7 cells; assay type: cell-based, Huh-7
Hepatitis C virus = experiment: Antiviral activity against HCV 1b infected in human HuH7 cells assessed as inhibition of viral sub-genomic replication by EG(delta-4AB)SEAP reporter protein assay; assay type: functional, organism-based, Hepacivirus hominis; conditions: genotype 1b, Huh-7
[2] = Selectivity index, ratio of CC50 for human HuH7 cells to EC50 for HCV 1b; design: species or system Huh-7

EC50 (Hepatitis C virus) [µM]	SMILES	CC50 [1] [µM]	Ratio CC50/EC50 [2]
3.18	O=C(NC(=S)N1CCc2c(OCc3ccccc3)cccc21)c1ccccc1	> 50	>16
4.06	O=C(NC(=S)n1ccc2c(OCCCCCOc3ccc(Cl)cc3)cccc21)c1ccccc1	29.5	7
2.06	O=C(NC(=S)N1CCc2c(OCCCCCOc3ccc(Cl)cc3)cccc21)c1ccno1	37.1	18
31.6	CCCC(=O)NC(=S)N1CCc2c(OCCCCCOc3ccc(Cl)cc3)cccc21	> 50	2
0.72	O=C(NC(=S)N1CCc2c(OCCCCCOc3ccc(Cl)cc3)cccc21)c1ccc([N+](=O)[O-])cc1	13.6	19
4.71	NC(=S)N1CCc2c(OCCCCCOc3ccc(Cl)cc3)cccc21	> 50	>11
13.4	O=C(CCc1ccccc1)NC(=S)N1CCc2c(OCCCCCOc3ccc(Cl)cc3)cccc21	> 50	>4
0.57	N#Cc1cccc(C(=O)NC(=S)N2CCc3c(OCCCCCOc4ccc(Cl)cc4)cccc32)c1	9.75	17
1.65	O=C(NC(=S)N1CCc2c(OCCCCCOc3ccc(Cl)cc3)cccc21)c1ccccc1[N+](=O)[O-]	> 50	>30
25.4	O=C(NC(=S)N1CCc2c(OCCCCCOc3ccc(Cl)cc3)cccc21)C1CCCC1	> 50	>2
0.58	O=C(NC(=S)N1CCc2c(OCCCCCOc3ccc(Cl)cc3)cccc21)c1cccc([N+](=O)[O-])c1	12.1	21
> 50	O=C(NC(=S)N1CCc2c(OCCCCCOc3ccc(Cl)cc3)cccc21)Oc1ccccc1	> 50	>1
1.1	O=C(NC(=S)N1CCc2c(OCCCCCOc3ccc(Cl)cc3)cccc21)c1cc2ccccc2s1	> 50	>45
0.66	O=C(NC(=S)N1CCc2c(OCCCCCOc3ccc(Cl)cc3)cccc21)c1cccs1	10.7	16
2.02	COc1ccc(C(=O)NC(=S)N2CCc3c(OCCCCCOc4ccc(Cl)cc4)cccc32)cc1	34.4	17
42.5	O=C(NC(=S)N1CCc2c(OCCCCCOc3ccc(Cl)cc3)cccc21)C1CCCCC1	> 50	>1
0.79	O=C(NC(=S)N1CCc2c(OCCCCCOc3ccc(Cl)cc3)cccc21)c1ccccc1	> 50	> 63
2.37	O=C(NC(=S)N1CCc2c(OCCCCCOc3ccc(Cl)cc3)cccc21)c1cccnc1	11.1	5
> 50	NC(=S)N1CCCc2c(OCCCCCOc3cccc4ccccc34)cccc21	> 50	>1

EC50 (Hepatitis C virus) [µM]	SMILES	CC50 [1] [µM]	Ratio CC50/EC50 [2]
42.4	CN(C)c1ccc(C(=O)NC(=S)N2CCc3c(OCCCCCOc4ccc(Cl)cc4)cccc32)cc1	> 50	>1
0.95	O=C(NC(=S)N1CCc2c(OCCCCCOc3ccc(Cl)cc3)cccc21)c1ccc(F)cc1	31.1	33
4.81	O=C(NC(=S)N1CCc2cc(OCc3ccccc3)ccc21)c1ccccc1	45.2	9
0.58	O=C(NC(=S)N1CCc2c(OCCCCCOc3ccc(Cl)cc3)cccc21)c1ccco1	4.62	8
24.5	NC(=S)n1ccc2c(OCCCCCOc3ccc(Cl)cc3)cccc21	24.7	1
1.95	CC(C)(C)c1ccc(C(=O)NC(=S)N2CCc3c(OCCCCCOc4ccc(Cl)cc4)cccc32)cc1	> 50	>26
> 50	O=C(NC(=S)N1CCc2cccc(OCc3ccccc3)c21)c1ccccc1	> 50	>1
> 50	S=C(NC(=S)N1CCc2c(OCCCCCOc3ccc(Cl)cc3)cccc21)Oc1ccccc1	> 50	>1
1.23	O=C(NC(=S)N1CCc2c(OCCCCCOc3ccc(Cl)cc3)cccc21)c1ccc(C(F)(F)F)cc1	32.7	27
0.69	O=C(NC(=S)N1CCc2c(OCCCCCOc3ccc(Cl)cc3)cccc21)c1ccc(Cl)cc1	21.7	31
1.02	O=C(NC(=S)N1CCc2c(OCCCCCOc3ccc(Cl)cc3)cccc21)c1ccsc1	> 50	>49
0.88	O=C(NC(=S)N1CCc2c(OCCCCCOc3ccc(Cl)cc3)cccc21)c1ccc(Br)cc1	29.1	33
1.94	Cc1ccc(C(=O)NC(=S)N2CCc3c(OCCCCCOc4ccc(Cl)cc4)cccc32)cc1	> 50	>26
> 50	O=S(=O)(NC(=S)N1CCc2c(OCCCCCOc3ccc(Cl)cc3)cccc21)c1ccccc1	> 50	>1
5.05	O=C(NC(=S)N1CCc2ccc(OCc3ccccc3)cc21)c1ccccc1	43.8	9
0.51	N#Cc1ccc(C(=O)NC(=S)N2CCc3c(OCCCCCOc4ccc(Cl)cc4)cccc32)cc1	> 50	>98
1.72	O=C(NC(=S)N1CCc2c(OCCCCCOc3ccc(Cl)cc3)cccc21)c1ccoc1	20.1	12
0.49	NC(=S)Nc1cccc(Oc2ccccc2)c1		
2.16	O=C(NC(=S)N1CCc2c(OCCCCCOc3ccc(Cl)cc3)cccc21)c1ccc2ccccc2c1	> 50	>23

— ChEMBL document CHEMBL1152383, “Design and synthesis of indole, 2,3-dihydro-indole, and 3,4-dihydro-2H-quinoline-1-carbothioic acid amide derivatives as novel HCV inhibitors” (Bioorg Med Chem Lett, 2009)
